Test results as given in patent publication US11401243B2, “Quinoline derived small molecule inhibitors of nicotinamide N-methyltransferase (NNMT) and uses thereof” (priority 2017, dated 2022).
Entries after “also recorded” stand apart in the source; their conditions may differ.

What was measured:
[1] = Bi-directional permeability assay with Caco-2 cells; conditions: human
Caco-2 cells = test: as above; conditions: Caco-2; listed as 5-amino-1MQ
[2] = target: T1, recombinant human COMT enzyme (Homo sapiens, UniProt P21964); test: COMT activity assay (radiometric); format: biochemical; conditions: maximal tested concentration 600 μM
T1 construct: Reaction Biology Corporation (ran the assay)
T1 sequence (P21964 1-271): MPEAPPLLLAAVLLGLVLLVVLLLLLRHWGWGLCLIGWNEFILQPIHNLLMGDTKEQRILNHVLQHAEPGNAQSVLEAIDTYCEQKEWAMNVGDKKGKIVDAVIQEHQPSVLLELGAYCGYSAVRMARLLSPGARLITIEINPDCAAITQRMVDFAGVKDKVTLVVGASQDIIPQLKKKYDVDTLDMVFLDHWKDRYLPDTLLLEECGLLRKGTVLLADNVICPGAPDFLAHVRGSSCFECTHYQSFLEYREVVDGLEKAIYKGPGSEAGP

[3] = system: diet-induced obese (DIO) mice; format: in vivo
Method: 17-week old, male DIO C57Bl/6 mice that have been fed high-fat diet (HFD) for 11 weeks (starting at week 6) were purchased from Jackson Labs (Jackson Laboratory; Bar Harbour, Me., USA). Mice were initially group housed (three/cage) and allowed to acclimate to the colony environment maintained at a constant temperature (21-23° C.) and humidity (40-50%) on a 12-hour light-dark cycle (lights on 0600-1800 h). Upon arrival, mice were continued to be fed HFD (Open Source Diets formula D12451 from Research Diets Inc.; New Brunswick, N.J., USA), containing 45% energy from fat. Water was available ad libitum.
All experiments were carried out in accordance with the Guide for the Care and Use of Laboratory Animals and with approval from the Institutional Animal Care and Use Committee at the University of Texas Medical Branch. Following acclimation for seven days, mice were single-housed and maintained on HFD for 4 additional weeks. Mice were intermittently handled, with body weights and food intake (hopper weights) measured 2-3 times per week. […] Mice in the vehicle cohort received three subcutaneous (SC) saline (1 ml/kg) injections/day (˜0930, 1330, 1730 h) and mice in the treatment cohort received three SC injections of the NNMT inhibitor 5-amino-1MQ at a dose of 20 mg/kg/injection for a total dose of […] of the parent compound (calculated according to free weight) for 11 days. […] Body weight and food intake were measured every other day. On day 12, mice were subjected to a 4 h fast period, then deeply anesthetized using isoflurane and trunk blood was collected by decapitation. Plasma was separated from every sample and the samples were submitted to Texas A&M Veterinary Medical Diagnostic Laboratory (TVMDL; College Station, Tex., USA) for plasma lipid-panel measurements (total cholesterol and triglycerides). Triglycerides values were not included for analysis since the measurements were confounded by sample hemolysis that interfered with the triglyceride reagent in the assay. Epididymal fat pads (epididymal white adipose tissue; EWAT) were excised from every mouse, weighed, and fixed in 10% buffered formalin for further processing.
Formalin-fixed EWAT samples were paraffin embedded, sectioned ([…]), and stained with hematoxylin and eosin (H&E). Images were obtained at 20× magnification using a light microscope (Leica DM LB) and digitally photographed for automated image analysis. Images were analyzed using the “Adiposoft” plug-in software in ImageJ (NIH). […]. Minimum and maximum diameter parameters were assigned to identify appropriate cells for the automated adipocyte area calculations, and cells along the boundary of the images were excluded from analyses. Three to five images/sample were analyzed, with automated analysis confirmed by visual inspection. Images corresponding to each sample were averaged to obtain the mean adipocyte area (μm2) per sample and combined to calculate group mean values for control (vehicle-treated EWAT samples) and treatment (NNMT inhibitor-treated EWAT samples) cohorts.

[4] = system: differentiated adipocytes (3T3 cells); test: Quantitative measurement of selected metabolites (NA, SAM, SAH, NAD+) in cultured cells; format: cell-based
Method: Sample processing was performed as described above.

[5] = system: NNMT activity in 3T3-L1 pre-adipocytes and differentiated adipocytes; test: Quantitative measurement of NNMT reaction product 1-MNA in cultured cells (LC/MS/MS); format: cell-based; conditions: for intracellular levels of 1-MNA: 30 μM
Method: Differentiation of 3T3-L1 pre-adipocytes. […] Briefly, standard culture media was supplemented with scheduled addition of adipogenic agents [3-isobutyl-1methyl xanthine (IBMX), Sigma Aldrich; MO, USA), dexamethasone (Sigma Aldrich; MO, USA), insulin (Gibco Life Technologies Inc.; Grand Island, N.Y., USA)] over 10 days to promote differentiation of 3T3-L1 fibroblasts into adipocytes; a combination of 1 mM IBMX, 1 μM dexamethasone, and 10 μg/ml of insulin in media were added to fully confluent 3T3-L1 fibroblasts for three days (days 0-3) to initiate differentiation. At day 3, the media was replaced with culture media supplemented with insulin (10 μg/ml). After day 6, cells were maintained in culture media until described experiments were begun (days 8-10).
Cellular 1-MNA concentrations were determined using an ultra-sensitive high-resolution AB Sciex 6500 Q-trap mass spectrometer coupled to an Agilent 1260 ultra-high pressure liquid chromatography (LC/MS/MS) system. Using multiple reaction monitoring (MRM) positive ion mode, the 1-MNA NNMT reaction product was quantified from peak area ratios using AB Sciex Analyst and MultiQuant 2.1 software and the parent precursor and Q3 masses set to m/z 137.1 and 94.1, respectively. Fragment ions at m/z of 92.1 and 77.9 were additionally used for the detection and confirmation of 1-MNA, respectively. […]. To determine the effect of NNMT inhibitor on NNMT activity in the pre-adipocytes and differentiated adipocytes (8×10^4 cells/well seeded prior to beginning differentiation), cells were treated with 30 μM inhibitor for 24 h. Similarly, to compare the relative effects of multiple NNMT inhibitors on NNMT activity in cultured adipocytes, differentiated adipocytes in 6-well plates were treated with 10 μM test compound for 24 h. Following treatment, media was replaced with 80% (v/v) methanol (cooled to −80° C.) containing 500 nmol 6-chloronicotinamide (6-CN) as an internal standard (IS) to extract cellular metabolites. Adherent cells were scrapped, then centrifuged at 4° C. and 13000 g for 15 min, and the resulting supernatants processed using established protocols. […]. Data were subsequently normalized to the IS peak area and transformed as % control values for cross-sample comparisons. […] Choice of inhibitor concentrations and time period was chosen based on the results from the MTT studies.

[6] = DIO mice, 20 mg/kg SC t.i.d., 11 days

With `C[n+]1cccc2c(N)cccc21` [1j, 5-amino-1-methylquinolin-1-ium iodide] the efflux ratio at 2 h, 10 μM ([1]; Caco-2) was 1.33, the Papp A→B at 2 h, 10 μM ([1]; Caco-2, pH 7.4) was 34.2 ×10⁻⁶ cm/s and the Papp B→A at 2 h, 10 μM ([1]; Caco-2, pH 7.4) was 45.2 ×10⁻⁶ cm/s. For the same compound, the “Classification (active transport / efflux)” value (Caco-2 cells) was “no detectable efflux; also recorded: High permeability”, the inhibition at 600 µM [2] was 10% and the “decrease in mass of EWAT compared with control DIO mice” value [3, 6] was roughly 35%. The “total cumulative food intake” value [3, 6] was 26.2 ± 1.4 g, the “weight loss at end of treatment” value [3, 6] was 2.0 ± 0.6 g and the “weight loss from baseline measures” value [3, 6] was roughly 5.1%. The “body weight over treatment period compared to controls (in words)” value ([3]; DIO mice, 20 mg/kg SC three times daily, 11 days) was “progressive loss of body weight”, the “decrease in adipocyte size compared to control DIO mice” value ([3]; EWAT histology, 20 mg/kg SC t.i.d., 11 days) was greater than 30% and the “decrease in adipocyte volume compared to control DIO mice” value ([3]; EWAT histology, data not shown) was greater than 40%. For the same compound, the “tolerability in dose escalation study” value ([3]; mouse, in vivo, 60 mg/kg/day) was “well tolerated with no observable adverse effects”, the “total cholesterol levels lower relative to control DIO mice” value ([3]; plasma, 4 h fast, day 12) was roughly 30% and the “NAD+ levels vs. control” value ([4]; 10 μM) was “significant increase”. The “intracellular SAM levels relative to control adipocytes” value ([4]; 30 μM) was “significant increase”, the “increase in NAD+ levels relative to control adipocytes” value ([4]; 1-60 μM) was 1.2-1.6 fold and the “intracellular levels of NA” value ([4]; one-way ANOVA) was “no statistically significant main effect”. For the same compound, the “intracellular levels of SAH” value ([4]; one-way ANOVA) was “no statistically significant main effect”, the “1-MNA levels in differentiated adipocytes relative to control” value ([5]; 10 μM, 24 h) was “significantly decreased” and the EC50 ([5]; Mus musculus, 3T3-L1, 24 h, 0.3-60 μM, 3-parameter sigmoidal fit, read-out: EC50 for inhibition of NNMT (intracellular 1-MNA) in fully differentiated adipocytes) was 2300 nM. The “intracellular levels of 1-MNA” value ([5]; adipocytes, 24 h) was “significant reduction”, the “relative intracellular 1-MNA levels, % of level in untreated adipocytes” value ([5]; inhibitor concentrations 10-60 μM) was roughly 40% and the “intracellular levels of 1-MNA” value ([5]; pre-adipocytes, 24 h) was “significant reduction”.
